Drawing on patent US20220160703A1, “TUMOR-SELECTIVE COMBINATION THERAPY” (The Board of Regents of The University of Texas System, priority 2019, published 2022), this text covers HMGB1 secretion for one compound.

In the experiment the test system is HMGB1. The experiment can be described thus: HMGB1 release detection (ELISA). Particulars: NQO1+ tumor cells (MC38, TC-1, NQO1-overexpressing B16), β-lap 3 hr, 24 hr later. In kind it is cell-based, murine. The procedure: FIGS. 5A-F. β-Lap treatment-induced HMGB1 release enhances tumor immunogenicity and triggers antitumor T cell immunity in vivo. (FIG. 5A) MC38, TC-1 and B16 (NQO null and overexpression clones) were treated with β-lap for 3 hr followed by washing and replacing medium. The level of HMGB1 released into the culture supernatant was determined by ELISA 24 hr later. (FIG. 5B) The research schema for in vivo cross-presentation of tumor specific antigen from β-lap-induced dying tumor cells in FIG. 5C and FIG. 5D. (FIGS. 5C-D) Live or β-lap-induced dying MC38-OVA cells were subcutaneously inoculated into the flank of WT or Tlr4^−/− C57BL/6 (n=3-4/group) mice along with or without anti-HMGB1 antibody. […] IFNγ producing cells were determined by ELISPOTs assay (FIG. 5C), and IFNγ secretion level was quantified by CBA mouse IFNγ assay (FIG. 5D). […] Data are shown as mean±SEM from at least two to three independent experiments. *P<0.05, **P<0.01, and ***P<0.001 determined by two-way ANOVA (FIG. 5C and FIG. 5D) or log-rank test (FIG. 5F).
FIGS. 25A-E. IB-DNQ induces tumor ICD and dendritic cell-mediated T cell cross-priming. […] MC38, MC38 NOQ1^−/−, B16, and B16 NOQ1^+ cells were treated with IB-DNQ for 4 h followed by replacing medium and growth for 24 h, culture supernatant was collected and HMGB1 levels were determined by ELISA. […]

On to `CC1(C)CCC2=C(O1)c1ccccc1C(=O)C2=O` [β-lap, β-lapachone], for which the HMGB1 secretion entry was “dose-dependent secretion of HMGB1”.
